Test results published in patent publication US20120295887A1, “PHARMACEUTICALLY ACCEPTABLE SALTS OF PYRROLO-NITROGENOUS HETEROCYCLIC DERIVATIVES, PREPARATION METHOD AND MEDICAL USE THEREOF” (SHANGHAI HENGRUI PHARMACEUTICAL CO., LTD., priority 2010, published 2012).
Structures can show the parent of a compound that is named as a salt. Where two headings read alike, the source gives them in different places.

How the values were obtained:
[1] = Solubility assay in physiological saline; type: physicochemical; conditions: conclusion in words
Protocol: According to the conventional solubility measurement, the solubility of the compound of formula (I) and salts thereof were determined in physiological saline.

[2] = Pharmacokinetics assay in rats (intragastric and tail vein administration, plasma LC/MS/MS); type: in vivo; conditions: for F (oral absolute bioavailability) / bioavailability: intragastric 10 mg/kg (calculated by the base part), from AUC0-t vs tail vein injection; for Cmax: 0.5% CMC-Na suspension; for bioavailability: read-out: F (oral absolute bioavailability)
Protocol: The rats were used as experimental animals. The compound of formula (I) and other salts thereof were administrated intragastrically, the maleate of the compound of formula (I) was injected into the tail vein to determine the drug concentration in plasma at different time points by LC/MS/MS method. The pharmacokinetic behavior, characteristics and the oral absolute bioavailability of the compounds in the present invention were studied and evaluated in rats.
The compound of formula (I), compounds of Example 1˜5.
28 healthy adult SD rats, male and female in half, were divided into 7 groups (4 rats in each group) and purchased from SINO-BRITSH SIPPR/BK LAB. ANIMAL LTD., CO, License number: SCXK (Shanghai) 2008-0016.
The intravenous injection administration group: the suitable amount of compounds were weighted, added into physiological saline and diluted to the final volume. The sample concentration was 1.0 mg/mL.
The intragastrical administration group: the suitable amount of compounds were weighted and added into 0.5% CMC-Na to prepare 1.0 mg/mL suspension by using ultrasound device. The sample should be prepared freshly away from light at the time of use.
28 healthy adult SD rats, male and female in half, were divided into 7 groups (4 rats in each group). After an overnight fast, the compound of Example 1, at a dose of 10 mg/kg (calculated by the base part), at a volume of 10 mL/kg, was administered intragastrically or injected into the tail vein.
For the intravenous injection administration group, blood samples (0.2 mL) were taken from orbital sinus at pre administration and at 2 minutes, 15 minutes, 30 minutes, 1.0 hour, 2.0 hours, 4.0 hours, 6.0 hours, 8.0 hours, 12.0 hours, 24.0 hours and 36.0 hours post administration, stored in heparinized tubes and centrifuged for 10 minutes at 3,500 rpm. The plasma samples were stored at −20° C.
For the intragastrical administration group, blood samples were taken at pre administration and at 0.5, 1.0, 2.0, 3.0, 4.0, 6.0, 8.0, 12.0, 24.0 and 36.0 hours post administration. The method to treat the samples was the same with the intravenous injection administration group. The rats were fed 2 hours after administration.
25 μL of rat plasmas taken at various time points after administration were mixed with 20 μL of internal standard solution and […] of methanol for 2 minutes by using a vortexer and the mixture was centrifuged for 10 minutes at 16,000 rpm. 10 pt of the supernatant was analyzed by LC-MS/MS.
25 μL of rat blank plasmas were mixed with a series of standard solutions respectively to obtain plasma concentration of 1.00, 2.00, 5.00, 25.0, 100, 500, 2000 and 5000 ng/mL. 20 μL of internal standard solution and 150 μL of methanol were added and then the mixture was operated according to “plasma sample pretreatment” method. Plasma concentration was used as the abscissa, the ratio of chromatographic peak area between the sample and internal standard was used as the ordinate, the linear regression was carried out by the weighted least square method (w=1/x^2) to obtain the typical standard curve equation.
Compartment model fitting was carried out on the pharmacokinetic behavior of the tested compounds to calculate the main pharmacokinetic parameters, wherein the measured values were taken for Cmax and tmax. Oral absolute bioavailability was calculated according to AUC0-t after intragastrical administration and intravenous injection at tail vein.

[3] = Solubility in conventional solvents (inventor's finding); type: physicochemical; conditions: in words
Source text: It is necessary to develop new forms of the compound of formula (I) to improve its solubility and pharmacokinetic absorption, which can be used in conventional preparation of dosage forms.

[4] = SD rats, intragastric 10 mg/kg, maleate
[5] = both sexes, Sprague-Dawley (SD), rat, plasma, iv, 10 mg/kg, Vein (tail vein injection) 10 mg/kg, read-out: MRT
[6] = both sexes, Sprague-Dawley (SD), rat, plasma, iv, Vein (tail vein injection) 10 mg/kg
[7] = both sexes, Sprague-Dawley (SD), rat, plasma, iv, Vein (tail vein injection) 10 mg/kg in physiological saline, read-out: AUC0-t
[8] = both sexes, Sprague-Dawley (SD), rat, plasma, po, 10 mg/kg, intragastric 10 mg/kg
[9] = both sexes, Sprague-Dawley (SD), rat, plasma, po, 10 mg/kg
[10] = both sexes, Sprague-Dawley (SD), rat, plasma, po, 10 mg/kg, intragastric 10 mg/kg, read-out: Cmax
[11] = both sexes, Sprague-Dawley (SD), rat, plasma, po, 10 mg/kg, intragastric 10 mg/kg, read-out: AUC0-t
[12] = both sexes, Sprague-Dawley (SD), rat, plasma, po, 10 mg/kg, intragastric 10 mg/kg, read-out: MRT
[13] = both sexes, Sprague-Dawley (SD), rat, plasma, po, 10 mg/kg, intragastric 10 mg/kg, read-out: Tmax
[14] = SD rats, Vein (tail vein injection) 10 mg/kg

SMILES | MRT [2, 5] | half-life [2, 6] | AUC(0-t) [2, 7] | CL/F [2, 8] | half-life [2, 8] | bioavailability [2, 9] | Cmax [2, 10] | AUC(0-t) [2, 11] | MRT [2, 12] | Tmax [2, 13] | also measured
Cc1c(/C=C2\C(=O)Nc3ccc(F)cc32)[nH]c2c1C(=O)N(C[C@H](O)CN1CCOCC1)CCC2 [Example 1, (R,Z)-2-(5-fluoro-2-oxo-1,2-dihydro-indol-3-ylidenemethyl)-5-(2-hydroxy-3-morpholin-4-yl-propyl)-3-methyl-5,6,7,8-tetrahydro-1H-pyrrolo[3,2-c]azepin-4-one maleate] |  |  |  |  |  |  |  |  |  |  | solubility compared with free base and other salts of the compound of formula (I) [1]: Conclusion: Compared with free base and other salts of the compound of formula (I), the solubility of maleate of the compound of formula (I) has significantly improved.; F (oral absolute bioavailability) ([2]; SD rats, maleate): 48.2%; Cmax [2, 4]: 950 ± 370 ng/mL; AUC(0-t) [2, 4]: 7770 ± 2990 ng·h/mL; MRT [2, 4]: 6.66 ± 2.05 h; Tmax [2, 4]: 5.75 ± 2.06 h; t1/2 [2, 4]: 3.01 ± 0.60 h
Cc1c(/C=C2\C(=O)Nc3ccc(F)cc32)[nH]c2c1C(=O)N(C[C@H](O)CN1CCOCC1)CCC2.O=C(O)C[C@H](O)C(=O)O [Example 2, (R,Z)-2-(5-fluoro-2-oxo-1,2-dihydro-indol-3-ylidenemethyl)-5-(2-hydroxy-3-morpholin-4-yl-propyl)-3-methyl-5,6,7,8-tetrahydro-1H-pyrrolo[3,2-c]azepin-4-one malate] | 1.4 ± 0.35 h | 5.97 ± 2.5 h | 16100 ± 3970 ng·h/mL | 29.8 mL/min/kg | 3.13 ± 0.97 h | 30.4% | 850 ± 390 ng/mL | 4900 ± 2790 ng·h/mL | 4.29 ± 1.87 h | 1.75 ± 1.66 h | 
CC(O)C(=O)O.Cc1c(/C=C2\C(=O)Nc3ccc(F)cc32)[nH]c2c1C(=O)N(C[C@H](O)CN1CCOCC1)CCC2 [Example 3, (R,Z)-2-(5-fluoro-2-oxo-1,2-dihydro-indol-3-ylidenemethyl)-5-(2-hydroxy-3-morpholin-4-yl-propyl)-3-methyl-5,6,7,8-tetrahydro-1H-pyrrolo[3,2-c]azepin-4-one lactate] | 1.4 ± 0.35 h | 5.97 ± 2.5 h | 16100 ± 3970 ng·h/mL | 27.3 mL/min/kg | 3.06 ± 1.21 h | 36.6% | 810 ± 450 ng/mL | 5900 ± 3350 ng·h/mL | 6.28 ± 1.56 h | 2.5 ± 1 h | 
Cc1c(/C=C2\C(=O)Nc3ccc(F)cc32)[nH]c2c1C(=O)N(C[C@H](O)CN1CCOCC1)CCC2 [Example 4, (R,Z)-2-(5-fluoro-2-oxo-1,2-dihydro-indol-3-ylidenemethyl)-5-(2-hydroxy-3-morpholin-4-yl-propyl)-3-methyl-5,6,7,8-tetrahydro-1H-pyrrolo[3,2-c]azepin-4-one mesylate] | 1.4 ± 0.35 h | 5.97 ± 2.5 h | 16100 ± 3970 ng·h/mL | 24.8 mL/min/kg | 3.41 ± 0.85 h |  | 770 ± 390 ng/mL | 7300 ± 5870 ng·h/mL | 6.68 ± 1.58 h |  | F (oral absolute bioavailability) ([2]; SD rats, mesylate): 45.3%; Tmax ([2]; SD rats, intragastric 10 mg/kg, mesylate): 3.75 ± 1.71 h
Cc1c(/C=C2\C(=O)Nc3ccc(F)cc32)[nH]c2c1C(=O)N(C[C@H](O)CN1CCOCC1)CCC2.Cl [Example 5, (R,Z)-2-(5-fluoro-2-oxo-1,2-dihydro-indol-3-ylidenemethyl)-5-(2-hydroxy-3-morpholin-4-yl-propyl)-3-methyl-5,6,7,8-tetrahydro-1H-pyrrolo[3,2-c]azepin-4-one hydrochloride] | 1.4 ± 0.35 h |  |  | 33.8 mL/min/kg | 3.6 ± 0.52 h | 25.2% | 500 ± 100 ng/mL | 4070 ± 1630 ng·h/mL | 6.8 ± 1.58 h | 4.25 ± 2.06 h | half-life ([2]; both sexes, Sprague-Dawley (SD), rat, plasma, iv, 10 mg/kg, Vein (tail vein injection) 10 mg/kg): 5.97 ± 2.5 h; AUC(0-t) ([2]; both sexes, Sprague-Dawley (SD), rat, plasma, iv, 10 mg/kg, Vein (tail vein injection) 10 mg/kg in physiological saline, read-out: AUC0-t): 16100 ± 3970 ng·h/mL
Cc1c(/C=C2\C(=O)Nc3ccc(F)cc32)[nH]c2c1C(=O)N(C[C@H](O)CN1CCOCC1)CCC2 [The compound of formula (I), (R,Z)-2-(5-fluoro-2-oxo-1,2-dihydro-indol-3-ylidenemethyl)-5-(2-hydroxy-3-morpholin-4-yl-propyl)-3-methyl-5,6,7,8-tetrahydro-1H-pyrrolo[3,2-c]azepin-4-one] |  |  |  |  |  |  |  |  |  |  | solubility in conventional solvents [3]: poorly soluble; MRT [2, 14]: 1.40 ± 0.35 h; t1/2 [2, 14]: 5.97 ± 2.50 h; AUC(0-t) ([2]; SD rats, Vein (tail vein injection) 10 mg/kg in physiological saline): 16120 ± 3970 ng·h/mL; AUC(0-t) ([2]; SD rats, intragastric 10 mg/kg): 4490 ± 2790 ng·h/mL; MRT ([2]; SD rats, intragastric 10 mg/kg): 5.24 ± 2.23 h; Tmax ([2]; SD rats, intragastric 10 mg/kg): 2.00 ± 1.41 h; t1/2 ([2]; SD rats, intragastric 10 mg/kg): 3.31 ± 0.57 h; F (oral absolute bioavailability) ([2]; SD rats): 27.9%; Cmax ([2]; SD rats, intragastric 10 mg/kg): 640 ± 240 ng/mL
